In brackets after ≈: the same amount, converted by molar mass. Where two headings read alike, the source gives them in different places.
Experiments:
[1] = test system: E. coli KA797 cells carrying BlaC position 105 library; type: cell-based, Escherichia coli; details: carbenicillin; for Fi CAR AVG: average of replicates
[2] = test system: E. coli KA797 cells carrying pUK21 with NmcA (pelB/Sec); test: microbe, parasite or virus in culture; type: cell-based; details: Escherichia coli, antibiotic alone
[3] = test system: E. coli KA797 cells carrying pUK21 vector without the β-lactamase gene; test: microbe, parasite or virus in culture; type: cell-based; details: Escherichia coli; antibiotic alone; pUK21 without β-lactamase gene; read-out: MIC
[4] = test system: E. coli KA797 cells carrying TEM-1 position 105 library; type: cell-based; details: for Fi carbenicillin AVG: average of replicates
[5] = test system: E. coli KA797 cells carrying pUK21 with CTX-M-14 WT (Tat); test: microbe, parasite or virus in culture; type: cell-based; details: Escherichia coli, antibiotic alone

Structure (SMILES): CC1(C)S[C@@H]2[C@H](NC(=O)C(C(=O)O)c3ccccc3)C(=O)N2[C@H]1C(=O)O (some centres unmarked) [carbenicillin]
- Fi CAR AVG ([1]; AA 105 Ala): -0.273
- Fi CAR 1 ([1]; AA 105 Ala, replicate 1): -0.487
- Fi CAR 3 ([1]; AA 105 Ala, replicate 3): -0.060
- Fi CAR AVG ([1]; AA 105 Arg): 0.354
- Fi CAR 1 ([1]; AA 105 Arg, replicate 1): -0.038
- Fi CAR 2 ([1]; AA 105 Arg, replicate 2): 0.623
- Fi CAR 3 ([1]; AA 105 Arg, replicate 3): 0.477
- Fi CAR AVG ([1]; AA 105 Asn): 0.070
- Fi CAR 1 ([1]; AA 105 Asn, replicate 1): 0.359
- Fi CAR 2 ([1]; AA 105 Asn, replicate 2): -0.104
- Fi CAR 3 ([1]; AA 105 Asn, replicate 3): -0.045
- Fi CAR AVG ([1]; AA 105 Asp): 0.382
- Fi CAR 1 ([1]; AA 105 Asp, replicate 1): 0.054
- Fi CAR 2 ([1]; AA 105 Asp, replicate 2): 0.201
- Fi CAR 3 ([1]; AA 105 Asp, replicate 3): 0.891
- Significance (Fi CAR AVG) ([1]; AA 105 Cys): +
- Fi CAR AVG ([1]; AA 105 Cys): 0.765
- Fi CAR 1 ([1]; AA 105 Cys, replicate 1): 0.616
- Fi CAR 2 ([1]; AA 105 Cys, replicate 2): 0.636
- Fi CAR 3 ([1]; AA 105 Cys, replicate 3): 1.043
- Significance (Fi CAR AVG) ([1]; AA 105 Gln): +
- Fi CAR AVG ([1]; AA 105 Gln): 1.328
- Fi CAR 1 ([1]; AA 105 Gln, replicate 1): 1.419
- Fi CAR 2 ([1]; AA 105 Gln, replicate 2): 1.237
- Fi CAR AVG ([1]; AA 105 Glu): 0.421
- Fi CAR 1 ([1]; AA 105 Glu, replicate 1): 1.372
- Fi CAR 2 ([1]; AA 105 Glu, replicate 2): -0.419
- Fi CAR 3 ([1]; AA 105 Glu, replicate 3): 0.311
- Significance (Fi CAR AVG) ([1]; AA 105 Gly): -
- Fi CAR AVG ([1]; AA 105 Gly): -0.444
- Fi CAR 1 ([1]; AA 105 Gly, replicate 1): -0.596
- Fi CAR 2 ([1]; AA 105 Gly, replicate 2): -0.209
- Fi CAR 3 ([1]; AA 105 Gly, replicate 3): -0.526
- Significance (Fi CAR AVG) ([1]; AA 105 His): +
- Fi CAR AVG ([1]; AA 105 His): 2.514
- Fi CAR 1 ([1]; AA 105 His, replicate 1): 2.622
- Fi CAR 2 ([1]; AA 105 His, replicate 2): 2.393
- Fi CAR 3 ([1]; AA 105 His, replicate 3): 2.527
- Fi CAR AVG ([1]; AA 105 Ile (WT)): 0.000
- Fi CAR 1 ([1]; AA 105 Ile (WT), replicate 1): 0.000
- Fi CAR 2 ([1]; AA 105 Ile (WT), replicate 2): 0.000
- Fi CAR 3 ([1]; AA 105 Ile (WT), replicate 3): 0.000
- Significance (Fi CAR AVG) ([1]; AA 105 Leu): +
- Fi CAR AVG ([1]; AA 105 Leu): 0.730
- Fi CAR 1 ([1]; AA 105 Leu, replicate 1): 1.223
- Fi CAR 2 ([1]; AA 105 Leu, replicate 2): 0.445
- Fi CAR 3 ([1]; AA 105 Leu, replicate 3): 0.522
- Fi CAR AVG ([1]; AA 105 Met): 0.034
- Fi CAR 1 ([1]; AA 105 Met, replicate 1): 0.791
- Fi CAR 3 ([1]; AA 105 Met, replicate 3): -0.722
- Significance (Fi CAR AVG) ([1]; AA 105 Phe): +
- Fi CAR AVG ([1]; AA 105 Phe): 3.398
- Fi CAR 1 ([1]; AA 105 Phe, replicate 1): 3.349
- Fi CAR 2 ([1]; AA 105 Phe, replicate 2): 3.354
- Fi CAR 3 ([1]; AA 105 Phe, replicate 3): 3.492
- Significance (Fi CAR AVG) ([1]; AA 105 Ser): +
- Fi CAR AVG ([1]; AA 105 Ser): 0.539
- Fi CAR 1 ([1]; AA 105 Ser, replicate 1): 0.311
- Fi CAR 2 ([1]; AA 105 Ser, replicate 2): 0.896
- Fi CAR 3 ([1]; AA 105 Ser, replicate 3): 0.410
- Fi CAR AVG ([1]; AA 105 Thr): -0.255
- Fi CAR 2 ([1]; AA 105 Thr, replicate 2): -0.487
- Fi CAR 3 ([1]; AA 105 Thr, replicate 3): -0.023
- Significance (Fi CAR AVG) ([1]; AA 105 Trp): +
- Fi CAR AVG ([1]; AA 105 Trp): 3.306
- Fi CAR 1 ([1]; AA 105 Trp, replicate 1): 3.226
- Fi CAR 2 ([1]; AA 105 Trp, replicate 2): 3.199
- Fi CAR 3 ([1]; AA 105 Trp, replicate 3): 3.493
- Significance (Fi CAR AVG) ([1]; AA 105 Tyr): +
- Fi CAR AVG ([1]; AA 105 Tyr): 3.672
- Fi CAR 1 ([1]; AA 105 Tyr, replicate 1): 3.556
- Fi CAR 2 ([1]; AA 105 Tyr, replicate 2): 3.582
- Fi CAR 3 ([1]; AA 105 Tyr, replicate 3): 3.878
- Fi CAR AVG ([1]; AA 105 Val): -0.016
- Fi CAR 1 ([1]; AA 105 Val, replicate 1): 0.268
- Fi CAR 2 ([1]; AA 105 Val, replicate 2): 0.226
- Fi CAR 3 ([1]; AA 105 Val, replicate 3): -0.543
- WT abs Fi 1 ([1]; WT (Ile 105) absolute fitness, replicate 1): -1.491
- WT abs Fi 2 ([1]; WT (Ile 105) absolute fitness, replicate 2): -1.775
- WT abs Fi 3 ([1]; WT (Ile 105) absolute fitness, replicate 3): -2.001
- MIC [2]: 200 µg/mL (≈ 529 µM)
- MIC [3]: 10 µg/mL (≈ 26.4 µM)
- Significance (Average fitnes carbenicillin) ([4]; AA 105 Ala): -
- Fi carbenicillin AVG ([4]; AA 105 Ala): -0.528
- Fi CAR 1 ([4]; AA 105 Ala, replicate 1): -0.503
- Fi CAR 2 ([4]; AA 105 Ala, replicate 2): -0.553
- Significance (Average fitnes carbenicillin) ([4]; AA 105 Arg): -
- Fi carbenicillin AVG ([4]; AA 105 Arg): -0.371
- Fi CAR 1 ([4]; AA 105 Arg, replicate 1): -0.360
- Fi CAR 2 ([4]; AA 105 Arg, replicate 2): -0.382
- Fi carbenicillin AVG ([4]; AA 105 Asn): -0.119
- Fi CAR 1 ([4]; AA 105 Asn, replicate 1): -0.088
- Fi CAR 2 ([4]; AA 105 Asn, replicate 2): -0.150
- Significance (Average fitnes carbenicillin) ([4]; AA 105 Asp): -
- Fi carbenicillin AVG ([4]; AA 105 Asp): -1.040
- Fi CAR 1 ([4]; AA 105 Asp, replicate 1): -1.009
- Fi CAR 2 ([4]; AA 105 Asp, replicate 2): -1.070
- Significance (Average fitnes carbenicillin) ([4]; AA 105 Cys): -
- Fi carbenicillin AVG ([4]; AA 105 Cys): -0.639
- Fi CAR 1 ([4]; AA 105 Cys, replicate 1): -0.611
- Fi CAR 2 ([4]; AA 105 Cys, replicate 2): -0.666
- Significance (Average fitnes carbenicillin) ([4]; AA 105 Gln): -
- Fi carbenicillin AVG ([4]; AA 105 Gln): -0.400
- Fi CAR 1 ([4]; AA 105 Gln, replicate 1): -0.384
- Fi CAR 2 ([4]; AA 105 Gln, replicate 2): -0.417
- Significance (Average fitnes carbenicillin) ([4]; AA 105 Glu): -
- Fi carbenicillin AVG ([4]; AA 105 Glu): -0.893
- Fi CAR 1 ([4]; AA 105 Glu, replicate 1): -0.890
- Fi CAR 2 ([4]; AA 105 Glu, replicate 2): -0.895
- Fi carbenicillin AVG ([4]; AA 105 Gly): -0.181
- Fi CAR 1 ([4]; AA 105 Gly, replicate 1): -0.158
- Fi CAR 2 ([4]; AA 105 Gly, replicate 2): -0.204
- Fi carbenicillin AVG ([4]; AA 105 His): -0.182
- Fi CAR 1 ([4]; AA 105 His, replicate 1): -0.177
- Fi CAR 2 ([4]; AA 105 His, replicate 2): -0.187
- Significance (Average fitnes carbenicillin) ([4]; AA 105 Ile): -
- Fi carbenicillin AVG ([4]; AA 105 Ile): -0.707
- Fi CAR 1 ([4]; AA 105 Ile, replicate 1): -0.683
- Fi CAR 2 ([4]; AA 105 Ile, replicate 2): -0.731
- Significance (Average fitnes carbenicillin) ([4]; AA 105 Leu): -
- Fi carbenicillin AVG ([4]; AA 105 Leu): -0.631
- Fi CAR 1 ([4]; AA 105 Leu, replicate 1): -0.615
- Fi CAR 2 ([4]; AA 105 Leu, replicate 2): -0.647
- Significance (Average fitnes carbenicillin) ([4]; AA 105 Lys): -
- Fi carbenicillin AVG ([4]; AA 105 Lys): -0.496
- Fi CAR 1 ([4]; AA 105 Lys, replicate 1): -0.486
- Fi CAR 2 ([4]; AA 105 Lys, replicate 2): -0.506
- Significance (Average fitnes carbenicillin) ([4]; AA 105 Met): -
- Fi carbenicillin AVG ([4]; AA 105 Met): -0.369
- Fi CAR 1 ([4]; AA 105 Met, replicate 1): -0.357
- Fi CAR 2 ([4]; AA 105 Met, replicate 2): -0.382
- Fi carbenicillin AVG ([4]; AA 105 Phe): -0.152
- Fi CAR 1 ([4]; AA 105 Phe, replicate 1): -0.133
- Fi CAR 2 ([4]; AA 105 Phe, replicate 2): -0.171
- Significance (Average fitnes carbenicillin) ([4]; AA 105 Pro): -
- Fi carbenicillin AVG ([4]; AA 105 Pro): -0.936
- Fi CAR 1 ([4]; AA 105 Pro, replicate 1): -0.929
- Fi CAR 2 ([4]; AA 105 Pro, replicate 2): -0.943
- Significance (Average fitnes carbenicillin) ([4]; AA 105 Ser): -
- Fi carbenicillin AVG ([4]; AA 105 Ser): -0.354
- Fi CAR 1 ([4]; AA 105 Ser, replicate 1): -0.356
- Fi CAR 2 ([4]; AA 105 Ser, replicate 2): -0.352
- Significance (Average fitnes carbenicillin) ([4]; AA 105 Thr): -
- Fi carbenicillin AVG ([4]; AA 105 Thr): -0.562
- Fi CAR 1 ([4]; AA 105 Thr, replicate 1): -0.532
- Fi carbenicillin AVG ([4]; AA 105 Trp): -0.027
- Fi CAR 1 ([4]; AA 105 Trp, replicate 1): -0.012
- Fi CAR 2 ([4]; AA 105 Trp, replicate 2): -0.043
- Fi carbenicillin AVG ([4]; AA 105 Tyr): 0.000
- Fi CAR 1 ([4]; AA 105 Tyr, replicate 1): 0.000
- Fi CAR 2 ([4]; AA 105 Tyr, replicate 2): 0.000
- Significance (Average fitnes carbenicillin) ([4]; AA 105 Val): -
- Fi carbenicillin AVG ([4]; AA 105 Val): -0.544
- Fi CAR 1 ([4]; AA 105 Val, replicate 1): -0.508
- Fi CAR 2 ([4]; AA 105 Val, replicate 2): -0.579
- WT abs Fi 1 ([4]; absolute fitness of TEM-1 WT, carbenicillin, replicate 1): 0.724
- WT abs Fi 2 ([4]; absolute fitness of TEM-1 WT, carbenicillin, replicate 2): 0.359
- MIC [5]: 16000 µg/mL (≈ 42300 µM)
